Reference: patent publication US8501792B2, “Treating cancer with desthiazolyl ritonavir” (priority 2008, dated 2013)
Like-named read-outs stand apart in the source and are kept apart here.

Tests used:
SKBR3 = experiment: Western blot protein depletion, SKBR3 (Example 4); format: cell-based
Description: (§1) Breast cancer cell lines MDA-MB-231, T47D and SKBR3 were used to study depletion of Hsp90 by M1 and ritonavir. Cells were incubated for 48 hours with 1) ritonavir (R) at its IC50 (20 μM for T47D and 40 μM for MDA-MB-231); 2) M1 at ritonavir's IC50; or DMSO (control). Cell extracts were made according to the method of Srirangam et al., Clin Cancer Res. 2006 Mar. 15; 12(6):1883-96. Briefly, nearly confluent cell monolayers were treated with drug or vehicle (DMSO) for 24 or 48 h. Cells were washed with PBS on ice and scraped in a RIPA buffer containing protease inhibitors including MG-132 and phosphatase inhibitors. The cell lysate protein content was determined by μBCA and equal amounts of protein were loaded per lane. Gel electrophoresis by SDS PAGE was performed with equal protein loading per lane (usually 30 μg) and the separated proteins were transferred to 0.45 μm nitrocellulose filters. The transfer was verified by Ponceau stain of the nitrocellulose filters. The filters were probed by chemiluminescent blotting and then exposed to X-ray film. The signal from the protein of interest was normalized to the GAPDH signal. Student's t-test was used to determine the significance of differences.

SKBR3 (ER-/Her2+) [1] = experiment: MTT proliferation assay, SKBR3; format: cell-based; details: Homo sapiens, SK-BR-3, Example 6, MTT after 48 h
Description: M1 inhibition of proliferation of MCF7 (ER+), T47D (ER+), MDA-MB-231 (triple negative), SKBR3 (ER−/Her2+), and the non-transformed mammary line MCF10A were studied. Cells (n=2000/well) were seeded in 96 well plates with drug or vehicle (DMSO) on D1 and after 48 h the cell number was determined by MTT assay.

T47D (ER+ line) = experiment: Western blot densitometry, T47D (Example 17); format: cell-based; design: % Reduction, Total Akt / % Reduction, Phospho Akt / % Reduction, ER-α: concentration or dose not given beside the values; details: 24 or 48 hours
Description: An ER^+ line, T47D, was treated with M1 or ritonavir for 24 or 48 hours. The cells were grown to confluence and treated with drug or DMSO vehicle. The cells were scraped on ice into RIPA buffer containing protease inhibitors including MG-132 and phosphatase inhibitors as published (see Srirangam et al. Clincal Ca Research 2006). The RIPA lysate was subjected to electrophoresis, blotted and probed with the appropriate antibodies.

T47D = experiment: Western blot protein depletion, T47D (Example 4); format: cell-based
Description: as §1

MCF7-her2 line = experiment: MTT proliferation assay, MCF7-her2 line; format: cell-based; details: MCF7-her2 line over-expressing her2; MTT after 48 h
[2] = test system: MDA-MB-231 (triple negative); experiment: Annexin V-FITC/PI apoptosis flow cytometry, MDA-MB-231; format: cell-based
Description: (§2) Induction of apoptosis was studied in a MCF7 breast cancer cell line. Apoptotic cells were detected using an Annexin V-FITC/PI apoptosis detection kit (Oncagene, Boston, Mass.). After plating at 5×10^5 in a 100-mm plate, the cells were grown for 48 hours in complete medium in presence of M1, ritonavir, or vehicle (DMSO). The culture and drug exposure conditions for the apoptosis assays were done across a range of 5 to 60 μmol/L M1 and ritonavir. Cells were harvested by trypsin treatment, washed with complete medium to neutralize the trypsin, and stained with PI and Annexin V-FITC. A total of 1×10^4 events were analyzed per assay by FACScan analysis using CellQuest software (Becton Dickinson). Replicate assays were done to confirm the results.
(§3) A similar study was performed using T47D (ER+), MDA-MB-231 (triple negative) and SKBR3 (ER−/Her2+) cell lines were performed as above.

[3] = Tolerability in nude mice (MTD, weight); format: in vivo; details: for MTD: female, nude (nu-/nu-), mouse, in vivo
Description: Six-8 weeks old female nude mice (nu^−/nu^−) (Charles River Laboratories International, Inc., MA) were injected into a right mammary fat pad with 1×10^6 log-phase MDA-MB-231. Mice were monitored bi-weekly for weight and tumor growth. When tumors reached a volume of approximately 30-40 mm^3 (calculated according to the formula: volume (mm^3)=(length)(width)^2/2), mice were randomized into three groups (each group n=10). One group of mice was injected daily i.p. with ritonavir (20 mg/Kg in 100 μl of ethanol-Tween 80), the second with M1 (20 mg/Kg in 100 μl of ethanol-Tween 80), and the third with vehicle only (100 μl of ethanol-Tween 80). […] Mice were weighted and their tumors were measured twice a week for the entire duration of the treatment (42 days).

SKBR3 (ER-/Her2+) [4] = experiment: Annexin V-FITC/PI apoptosis flow cytometry, SKBR3; format: cell-based
Description: as §2, §3

T47D cell line = experiment: Induction of reactive oxygen species, flow cytometry; format: cell-based; details: 30 μM, 24 hours, FIG. 3
Description: Production of ROS can be analyzed using flow cytometry. For example, induction of ROS, including peroxide and superoxide, can be studied in cancer cell line. Cells can be seeded in 6 well plates (˜80,000 cells/well) using the appropriate medium, and exposed to a drug for 24 hours. Subsequently, the medium can be removed from the wells and the cells can then be exposed to DHE (2 μM in PBS) or Carboxy-H2-DCFDA (10 μM in PBS) for 30 minutes. Cells can then be trypsinized, washed two times with PBS and analyzed by flow cytometry. Additional cells can be exposed to H2O2 (250 μM) for 2 hours as a positive control for ROS production. See Example 3.
Induction of Reactive Oxygen Species (ROS), including peroxide and superoxide, were studied in the T47D cell line. Cells were seeded in 6 well plates (˜80,000 cells/well) using the appropriate medium, (DMEM with 10% FBS, 1% L-Glu, 1% Sodium Piruvate, and 1% Pen-strep) and exposed to ritonavir (30 μM) and M1 (30 μM) for 24 hours. Subsequently, the medium was removed from the wells and the cells were exposed to DHE (2 μM in PBS) or Carboxy-H2-DCFDA (10 μM in PBS) for 30 minutes. Cells were then trypsinized, washed two times with PBS and analyzed by flow cytometry. Additional cells were exposed to H2O2 (250 μM) for 2 hours as a positive control for ROS production.

Row | Compound | G1/S regulatory protein Cyclin D1 (SKBR3) | reducing Hsp90 levels (SKBR3) | IC50 (SKBR3 (ER-/Her2+) [1]) [µM] | % Reduction, CDK2 (T47D (ER+ line)) [%] | % Reduction, CDK4 (T47D (ER+ line)) [%] | % Reduction, CDK6 (T47D (ER+ line)) [%] | % Reduction, Cyclin D1 (T47D (ER+ line)) [%] | % Reduction, ER-α (T47D (ER+ line)) [%] | % Reduction, Hsp90 (T47D (ER+ line)) [%] | % Reduction, Phospho Akt (T47D (ER+ line)) [%] | % Reduction, Total Akt (T47D (ER+ line)) [%] | G1/S regulatory protein Cyclin D1 (T47D; P<0.05) | IC50 (MCF7-her2 line) [µM] | fraction of apoptotic cells [2] [%] | fraction of apoptotic cells (SKBR3 (ER-/Her2+) [4]) [%] | ROS production (T47D cell line) | other results
1 | CC(C)c1nc(CN(C)C(=O)NC(C(=O)NC(Cc2ccccc2)CC(O)C(N)Cc2ccccc2)C(C)C)cs1 (stereo not drawn) [M1, desthiazolyl ritonavir] | reduced | neither drug reduced | 12 | 51.02 | 2.23 | 21.05 | 45.64 | 56.41 | 82.70 | 56.36 | 56.57 | reduced | 25 | 40 | 78 | induces ROS production | reducing total Akt, phospho-Akt, GSK3beta, c-src, and survivin (SKBR3; versus ritonavir, P<0.05): more potent; reducing Hsp90 levels (T47D; 48 hours, at ritonavir's IC50 (20 μM)): more potent than ritonavir; reducing ER alpha (T47D; versus ritonavir, P<0.05): more potent; reducing total Akt, phospho-Akt, GSK3beta, c-src, and survivin (T47D; versus ritonavir, P<0.05): more potent; MTD [3]: 20 mg/kg
2 | CC(C)c1nc(CN(C)C(=O)N[C@H](C(=O)N[C@@H](Cc2ccccc2)C[C@H](O)[C@H](Cc2ccccc2)NC(=O)OCc2cncs2)C(C)C)cs1 [ritonavir] | only M1 reduced | neither drug reduced | 33 | 49.91 | 23.99 | 11.64 | 42.87 | 33.24 | 48.3 | 9.98 | 5.04 | reduced | 25 | 20 | 11 | does not | Animal weight loss ([3]; 20 mg/Kg daily i.p., 42 days, FIG. 5C): did not occur; MTD ([3]; nude mice, read-out: maximum tolerated dose (MTD)): 40 mg/kg
